Molecules are shown by their SMILES.

mitochondrial RNA-polymerase (POLRMT), sequence (Q8BKF1 42-1207): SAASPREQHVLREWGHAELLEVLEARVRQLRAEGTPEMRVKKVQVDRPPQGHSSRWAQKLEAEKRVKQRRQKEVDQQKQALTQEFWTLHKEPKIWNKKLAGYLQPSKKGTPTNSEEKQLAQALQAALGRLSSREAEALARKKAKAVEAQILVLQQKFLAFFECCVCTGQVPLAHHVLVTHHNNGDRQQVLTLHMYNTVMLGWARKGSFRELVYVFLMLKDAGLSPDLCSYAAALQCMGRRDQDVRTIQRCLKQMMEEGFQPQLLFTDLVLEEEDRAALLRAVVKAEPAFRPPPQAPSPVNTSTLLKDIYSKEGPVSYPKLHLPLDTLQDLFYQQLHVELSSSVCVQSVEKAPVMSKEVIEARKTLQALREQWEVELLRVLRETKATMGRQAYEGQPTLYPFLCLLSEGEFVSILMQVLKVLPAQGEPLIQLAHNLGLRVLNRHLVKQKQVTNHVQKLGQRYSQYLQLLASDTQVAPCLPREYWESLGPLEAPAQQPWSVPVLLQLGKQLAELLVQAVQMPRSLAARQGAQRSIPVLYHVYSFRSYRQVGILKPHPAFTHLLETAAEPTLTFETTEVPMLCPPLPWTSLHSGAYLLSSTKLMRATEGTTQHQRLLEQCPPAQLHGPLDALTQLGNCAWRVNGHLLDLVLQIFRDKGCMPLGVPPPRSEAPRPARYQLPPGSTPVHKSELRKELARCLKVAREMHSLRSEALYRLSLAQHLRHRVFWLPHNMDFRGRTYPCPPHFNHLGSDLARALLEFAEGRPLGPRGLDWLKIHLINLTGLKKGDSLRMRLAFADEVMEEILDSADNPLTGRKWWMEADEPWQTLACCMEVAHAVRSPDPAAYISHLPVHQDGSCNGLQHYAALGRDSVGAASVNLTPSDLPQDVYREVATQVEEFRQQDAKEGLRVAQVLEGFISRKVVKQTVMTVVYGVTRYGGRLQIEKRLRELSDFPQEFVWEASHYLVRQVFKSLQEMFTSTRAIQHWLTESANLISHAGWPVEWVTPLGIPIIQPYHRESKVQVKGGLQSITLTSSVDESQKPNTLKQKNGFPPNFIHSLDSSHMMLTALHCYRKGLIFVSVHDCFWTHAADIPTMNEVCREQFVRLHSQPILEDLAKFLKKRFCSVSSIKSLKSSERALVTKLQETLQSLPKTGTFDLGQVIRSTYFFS

For this assay, the target named is mitochondrial RNA-polymerase (POLRMT) (Mus musculus, UniProt Q8BKF1). The experiment in a line: Homogeneous TR-FRET assay for mitochondrial transcription activity. To be noted: homogeneous TR-FRET assay according to Example 4; read-out: mitochondrial transcription activity (IC-50). The assay is classed as biochemical. The source says:
The TR-FRET assay was basically conducted as described in WO 2016/193231A1, especially as described in example 1 (hereby incorporated by reference). With respect to the background of the mitochondrial transcription it is referred to Falkenberg et al. (2002) and Posse et al. (Posse et al. 2015). The method monitors the activity of mitochondrial RNA-polymerase via detection of the formation of its product, a 407 bp long RNA sequence. Detection of the product is facilitated by hybridization of two DNA-oligonucleotide probes to specific and adjacent sequences within the RNA product sequence. Upon annealing of the probes, two fluorophores that are coupled directly to an acceptor nucleotide probe (ATT0647, 5′) or introduced via a coupled streptavidin interacting with a biotinylated donor nucleotide probe on the other side (Europium cryptate, 3) are brought into sufficient proximity to serve as a fluorescence-donor-acceptor pair as generally described in Walters and Namchuk (2003). Thus, a FRET signal at 665 nm is generated upon excitation at 340 nm.
Briefly, the protocol described here was applied for screening and activity determination in a low-volume 384-well microtiter plate with non-binding surface. For high-throughput application in the 1536-well microtiter plate format, volumes of the reagent mixes were adjusted, maintaining the volumetric ratio. Proteins POLRMT (NM_172551.3), TFAM (NM_009360.4) and TFB2M (NM_008249.4) were diluted from their stocks to working concentrations of 150 nM, 1.8 μM and 330 nM respectively, in a dilution buffer containing 100 mM Tris-HCl pH 8.0, 200 mM NaCl, 10% (v/v) glycerole, 2 mM glutathione (GSH), 0.5 mM EDTA and 0.1 mg/mL BSA. Protein dilutions and template DNA, comprising a pUC18 plasmid encoding the mitochondrial light strand promoter, restriction linearized proximal to the promoter 3′-end (pUC-LSP), were mixed at the twofold final assay-concentration in a reaction buffer, containing 10 mM Tris-HCl pH 7.5, 10 mM MgCl2, 40 mM NaCl, 2 mM GSH, 0.01% (w/v) Tween-20 and 0.1 mg/mL BSA.
5 μL of this mix were dispensed, depending on the chosen microtiter plate format, using multi-channel pipettes or a Multidrop® dispenser (Thermo Fisher Scientific, Waltham Mass.) into the wells of a microtiter plate and incubated at room temperature (RT) for 10 min. Chemical compounds under scrutiny in the assay were applied using contact-free acoustic droplet-dispensing (Echo520® Labcyte Inc., Sunnyvale Calif.) from 10 mM compound stocks in 100% DMSO, to a final concentration of 10 μM or in serial dilution series of the required concentration range. Equal amounts of DMSO without any compound were added to positive control samples, followed by an incubation step at RT for 10 min.
The enzymatic reaction was started by the addition of 5 μL of a mix of dNTPs in reaction buffer to a final concentration of 500 μM each. No nucleotide mix was added to negative control samples. The content of the wells was mixed using a VarioTeleshaker™ (Thermo Fisher Scientific, Waltham Mass.) at 1500 rpm for 45 sec after which the microtiter plate was centrifuged at 500×g for 1 min. The samples were incubated for 2 h at RT with humidity control to avoid evaporation. The detection reagents were prepared in a buffer that was composed, such that the enzymatic reaction was terminated due to chelating of Mg-ions and increased ionic strength, containing 50 mM Tris-HCl pH 7.5, 700 mM NaCl, 20 mM EDTA, and 0.01% (w/v) Tween-20. Importantly Eu-cryptate-coupled streptavidin had to be preincubated with a 100-fold molar excess of a random sequence oligonucleotide for 10 min at RT in the dark to block unspecific binding of single stranded RNA to the protein. Subsequently, the blocked streptavidin(-Eu) was mixed with the DNA-probes on ice and kept away from light until use. […]
(In general: TR-FRET usually uses a lanthanide donor and a delayed reading to cut background.)
As to `COC(=O)C1CCCN(C(=O)COc2ccc3c(-c4ccccc4)cc(=O)oc3c2)C1` (centres unmarked) [Compound 23, methyl 1-[2-(2-oxo-4-phenyl-chromen-7-yl)oxyacetyl]piperidine-3-carboxylate], the IC50 was in the range of 1000 to 10000 nM.
As for `O=C(O)COc1cc2oc(=O)cc(-c3ccccc3)c2cc1Cl` [Compound 88, 2-(6-chloro-2-oxo-4-phenyl-chromen-7-yl)oxyacetic acid], the figure is 1000 to 10000 nM; as for `CC(C)(C)OC(=O)COc1ccc2c(-c3ccccc3)cc(=O)oc2c1` [Compound 44, tert-butyl 2-(2-oxo-4-phenyl-chromen-7-yl)oxyacetate], 100 to 1000 nM; as for `CC(C)(C)OC(=O)COc1cc2oc(=O)cc(-c3ccccc3)c2cc1Cl` [Compound 82, tert-butyl 2-(6-chloro-2-oxo-4-phenyl-chromen-7-yl)oxyacetate], 1000 to 10000 nM.
For the compound `O=C(COc1cc2oc(=O)cc(-c3ccccc3)c2cc1Cl)NC[C@H]1CC[C@H](C(=O)O)CC1` [Compound 98, 4-[[[2-(6-chloro-2-oxo-4-phenyl-chromen-7-yl)oxyacetyl]amino]methyl]cyclohexanecarboxylic acid], the IC50 fell in the range of 1000 to 10000 nM.
The figure for `CC(Oc1cc2oc(=O)cc(-c3ccccc3)c2cc1Cl)C(=O)NC[C@H]1CC[C@H](C(=O)O)CC1` (some centres unmarked) [Compound 89, 4-[[2-(6-chloro-2-oxo-4-phenyl-chromen-7-yl)oxypropanoylamino]methyl]cyclohexanecarboxylic acid] is 1000 to 10000 nM; for `CCOC(=O)C(C)Oc1ccc2c(-c3cccc(Cl)c3)cc(=O)oc2c1` (centres unmarked) [Compound 4, ethyl 2-[4-(3-chlorophenyl)-2-oxo-chromen-7-yl]oxypropanoate] it is 100 to 1000 nM.
With `CCCCOC(=O)COc1ccc2c(-c3ccccc3)cc(=O)oc2c1` [Compound 76, butyl 2-(2-oxo-4-phenyl-chromen-7-yl)oxyacetate], the IC50 lay within 1000 to 10000 nM.
The figure for `O=C(COc1cc2oc(=O)cc(-c3ccccc3)c2cc1Cl)NCC(O)c1ccccc1` (centres unmarked) [Compound 90, 2-(6-chloro-2-oxo-4-phenyl-chromen-7-yl)oxy-N-(2-hydroxy-2-phenyl-ethyl)acetamide] is 1000 to 10000 nM; for `CCCc1cc2c(-c3ccccc3)cc(=O)oc2cc1OC(C)C(=O)O` (centres unmarked) [Compound 97, 2-(2-oxo-4-phenyl-6-propyl-chromen-7-yl)oxypropanoic acid] it is 1000 to 10000 nM; for `CCOC(=O)C(C)Oc1ccc2c(-c3ccc(C)cc3)cc(=O)oc2c1` (centres unmarked) [Compound 9, ethyl 2-[2-oxo-4-(p-tolyl)chromen-7-yl]oxypropanoate] it is 100 to 1000 nM.
As for `CC(Oc1ccc2c(-c3ccccc3)cc(=O)oc2c1)C(=O)Nc1cccnc1` (centres unmarked) [Compound 55, 2-(2-oxo-4-phenyl-chromen-7-yl)oxy-N-(3-pyridyl)propanamide], the figure is 1000 to 10000 nM; as for `O=C(COc1cc2oc(=O)cc(-c3ccccc3)c2cc1Cl)NCc1cccnc1` [Compound 59, 2-(6-chloro-2-oxo-4-phenyl-chromen-7-yl)oxy-N-(3-pyridylmethyl)acetamide], 1000 to 10000 nM.
Consider `COC(=O)C1CCN(C(=O)C(C)Oc2ccc3c(-c4ccccc4)cc(=O)oc3c2)CC1` (centres unmarked) [Compound 63, methyl 1-[2-(2-oxo-4-phenyl-chromen-7-yl)oxypropanoyl]piperidine-4-carboxylate], for which the IC50 lay within 1000 to 10000 nM.
As for `CC(Oc1ccc2c(-c3ccccc3)cc(=O)oc2c1)C(=O)Oc1ccccc1` (centres unmarked) [Compound 24, phenyl 2-(2-oxo-4-phenyl-chromen-7-yl)oxypropanoate], the figure is 1000 to 10000 nM; as for `COC(=O)C1CCCN(C(=O)C(C)Oc2cc3oc(=O)cc(-c4ccccc4)c3cc2Cl)C1` (centres unmarked) [Compound 10, methyl 1-[2-(6-chloro-2-oxo-4-phenyl-chromen-7-yl)oxypropanoyl]piperidine-3-carboxylate], 100 to 1000 nM.
For the compound `CC(Oc1ccc2c(-c3ccccc3)cc(=O)oc2c1)C(=O)NCCN1CCOCC1` (centres unmarked) [Compound 70, N-(2-morpholinoethyl)-2-(2-oxo-4-phenyl-chromen-7-yl)oxy-propanamide], the IC50 lay within 1000 to 10000 nM.

Source of the values: patent US10703735B2, “4-phenyl-coumarin derivatives, processes for their preparation and uses thereof for the treatment of cancer” (Lead Discovery Center GmbH, priority 2018, dated 2020).
